Reference: patent publication US8067535B2 (priority 2003, dated 2011)

Tests used:
[1] = system: vaccinia virus-specific CD8^+ CTL lines; format: cell-based, human
[2] = system: CD8^+ T cells in PBMCs of HLA-A0201-positive donors; format: cell-based, human

Sequence | recognition by CTL line [1] | specific recognition of epitope peptide by CTL line [1] | kinetics of the frequency of epitope-specific CD8^+ T cells: peak [2] | kinetics of the frequency of epitope-specific CD8^+ T cells: persistence [2]
TVADVRHCL [peptide B7080] | recognized | – | – | –
MPAYIRNTL [peptide B7034] | recognized | – | – | –
KVDDTFYYV [peptide 165] | recognized | high level of specific recognition | peaked two weeks after primary immunization | still detectable one to three years following primary immunization
LLYAHINAL [peptide 029D] | recognized | – | – | –
CLTEYILWV [peptide 74A] | recognized | high level of specific recognition | peaked two weeks after primary immunization | still detectable one to three years following primary immunization
